Source: patent US5736548A, “6-aryl pyrazolo[3,4-D] pyrimidin-4-ones and compositions and method of use thereof” (Sanofi, priority 1997, dated 1998)
Where “and” joins values, the source holds several entries; their conditions need not be identical. Equal entries are not always repeated. Structures can show the parent of a compound that is named as a salt. Where two headings read alike, the source gives them in different places.

Biological target: cGMP-PDE V (Homo sapiens, UniProt O76074)
Assay: biochemical
Parameters: species or system various animal species and man
Conditions: for inhibition at 0.1 µM / inhibition at 1 µM / inhibition at 0.01 µM / inhibition at 10 µM: read-out: Percent Inhibition cGMP-PDE V; for IC50: values separated by / and marked * are separate experimental runs
Experimental: The cGMP-PDE and other PDE isozymes were isolated from cardiovascular tissues (heart and aorta) of various animal species and man by anion-exchange and affinity chromatography as described by Silver et al., Sec. Messeng. Phos. 13:13-25, 1991; PDE activity, in the presence and absence of test compounds was determined essentially as described by Thompson et al., Adv. Cyclic Nucleotide Res. 10:69-92. To determine the potency and selectivity of compounds as PDE inhibitors, compounds are screened for their effect on cyclic nucleotide hydrolysis at 10 μM. […] The IC50 values are calculated from concentration-response curves as described by Tallarida and Murray, Manual of Pharmacologic Calculations with Computer Programs, Procedure 8, Graded Dose-response, pp. 14-19, Springer-Verlag, New York, 1981.

Compound | inhibition at 0.1 µM (0.1 μM) [%] | inhibition at 1 µM (1 μM) [%] | other results
C=CCc1cccc(-c2nc3n(C4CCCC4)[nH]c(CC)c-3c(=O)n2)c1O [Example 36, 1-cyclopentyl-3-ethyl-6-[2-hydroxy-3-(2-propenyl)phenyl]pyrazolo[3,4-d]pyrimidin-4-one] | 0 | 4 | –
CCOC(=O)COc1ccccc1-c1nc2n(C3CCCC3)[nH]c(CC)c-2c(=O)n1 [12 (b), 1-cyclopentyl-3-ethyl-6-[2-(ethoxycarbonylmethoxy)phenyl]pyrazolo [3,4-d]pyrimidin-4-one] | 30 | 74 | –
CCc1[nH]n(C2CCCC2)c2nc(-c3ccc(Cl)cc3O)nc(=O)c1-2 [Example 30, 1-cyclopentyl-3-ethyl-6-(4-chloro-2-hydroxyphenyl)pyrazolo[3,4-d]pyrimidin-4-one] | 9 | 53 | –
CCc1[nH]n(C2CCCC2)c2nc(-c3ccccc3OCCOC)nc(=O)c1-2 [34 (b), 1-cyclopentyl-3-ethyl-6-[2-[2-(methoxy)ethoxy]phenyl]pyrazolo[3,4-d]pyrimidin-4-one] | 56 | – | inhibition at 0.01 µM (0.01 μM): 28%
CCOc1cc(Cl)ccc1-c1nc2n(C3CCCC3)[nH]c(CC)c-2c(=O)n1 [29 (b), 1-cyclopentyl-3-ethyl-6-(4-chloro-2-ethoxyphenyl)pyrazolo[3,4-d]pyrimidin-4-one] | – | – | IC50: 7.4 nM and 8.4 nM
CCOc1cc(N(CC)CC)ccc1-c1nc2n(C3CCCC3)[nH]c(CC)c-2c(=O)n1 [37 (b), 1-cyclopentyl-3-ethyl-6-[2-ethoxy-4-(diethylamino)phenyl]pyrazolo[3,4-d]pyrimidin-4-one] | 31 | 73 | –
CCc1nn(C2CCCC2)c2nc(-c3ccc(-n4ccnc4)cc3)[nH]c(=O)c12 [8 (b), 1-cyclopentyl-3-ethyl-6-[4-(1-imidazolyl)phenyl]pyrazole[3,4-d]pyrimidin-4-one] | 32 | 70 | –
CCc1[nH]n(C2CCCC2)c2nc(-c3ccc(NS(C)(=O)=O)cc3)nc(=O)c1-2 [Example 33, 1-cyclopentyl-3-ethyl-6-[4-(methylsulfonylamino)phenyl]pyrazolo[3,4-d]pyrimidin-4-one] | 21 | 56 | –
CCc1nn(C2CCCC2)c2nc(-c3ccc(N)cc3)[nH]c(=O)c12 [Example 31, 1-cyclopentyl-3-ethyl-6-(4-aminophenyl)pyrazolo[3,4-d]pyrimidin-4-one hydrochloride 1/3 hydrate] | 31 | 61 | –
CCc1[nH]n(C2CCCC2)c2nc(-c3ccccc3C(F)(F)F)nc(=O)c1-2 [Example 15, 1-cyclopentyl-3-ethyl-6-(2-trifluoromethylphenyl)-pyrazolo[3,4-d]pyrimidin-4-one] | – | – | IC50: 500 nM
CCc1[nH]n(C2CCCC2)c2nc(-c3ccccc3OCCCN3CCOCC3)nc(=O)c1-2 [26 (c), 1-cyclopentyl-3-ethyl-6-[2-[3-(4-morpholinyl)propoxy]phenyl]pyrazolo[3,4-d]pyrimidin-4-one] | – | 28 | –
CCc1[nH]n(C2CCCC2)c2nc(-c3ccccc3OCCN3CCOCC3)nc(=O)c1-2 [11 (c), 1-cyclopentyl-3-ethyl-6-[2-[2-(4-morpholinyl)ethoxy]phenyl]pyrazolo[3,4-d]pyrimidin-4-one monohydrochloride] | – | – | IC50: 2700 nM and 4500 nM
CCOC(=O)COc1cccc(-c2nc3n(C4CCCC4)[nH]c(CC)c-3c(=O)n2)c1 [20 (b), 1-cyclopentyl-3-ethyl-6-[3-(ethoxycarbonylmethoxy)phenyl]pyrazolo[3,4-d]pyrimidin-4-one] | – | – | IC50: 94 nM
1-cyclopentyl-3-ethyl-6-[2-methyl-2,3-dihydrobenzo[b]furan-5-yl]pyrazolo[3,4-d]pyrimidin-4-one [Example 39] | – | – | Percent Inhibition cGMP-PDE V (0.01 μM): 24%; Percent Inhibition cGMP-PDE V (0.1 μM): 65%
CCc1[nH]n(C2CCCC2)c2nc(-c3ccc(OCCN4CCOCC4)cc3)nc(=O)c1-2 [18 (b), 1-cyclopentyl-3-ethyl-6-[4-[2-(4-morpholinyl)ethoxy]phenyl]pyrazolo[3,4-d]pyrimidin-4-one] | – | – | IC50: 370 nM
CCc1nn(C2CCCC2)c2nc(-c3cccc(OCCN(C)C)c3)[nH]c(=O)c12 [23 (c)] | – | – | IC50: 540 nM
CCc1[nH]n(C2CCCC2)c2nc(-c3ccccc3)nc(=O)c1-2 [Example 2, 1-cyclopentyl-3-ethyl-6-phenyl-pyrazolo[3,4-d]pyrimidin-4-one] | – | – | IC50: 250 nM
CCCOc1ccccc1-c1nc2[nH]ncc2c(=O)[nH]1 [17 (c), 6-(2-propoxyphenyl)pyrazolo[3,4-d]pyrimidin-4-one 1/4 hydrate] | – | – | inhibition at 0.1 µM: 14%; inhibition at 1 µM: 19%; inhibition at 10 µM: 39%
CCc1[nH]n(C2CCCC2)c2nc(-c3cccc(OC4CCCCN(C)C4)c3)nc(=O)c1-2 (centres unmarked) [43 (b), 1-cyclopentyl-3-ethyl-6-[3-(1-methyl-3-hexahydroazepinyloxy)phenyl]pyrazolo[3,4-d]pyrimidin-4-one] | 41 | 75 | –
CCc1nn(C2CCCC2)c2nc(-c3ccc(OCC(=O)O)cc3OC)[nH]c(=O)c12 [Example 14, 1-cyclopentyl-3-ethyl-6-[(2-methoxy-4-carboxymethoxy)phenyl]pyrazolo[3,4-d]pyrimidin-4-one] | – | – | IC50: 810 nM

Now from value to compound, other results behind:

inhibition at 0.1 µM (0.1 μM) [%] | inhibition at 1 µM (1 μM) [%] | Compound | other results
47 | 74 | CCc1[nH]n(C2CCCC2)c2nc(-c3cccc(OCC(=O)N4CCOCC4)c3)nc(=O)c1-2 [40 (d), 1-cyclopentyl-3-ethyl-6-[3-(4-morpholinylcarbonylmethoxy)-phenyl]pyrazolo[3,4-d]pyrimidin-4-one] | –
63 | – | CCc1[nH]n(C2CCCC2)c2nc(-c3cc(OCCN4CCOCC4)cc(OCCN4CCOCC4)c3)nc(=O)c1-2 [38 (b), 1-cyclopentyl-3-ethyl-6-[3,5-di[2-(4-morpholinyl)ethoxy]phenyl]pyrazolo[3,4-d]pyrimidin-4-one] | inhibition at 0.01 µM (0.01 μM): 11%
– | 19 | CCc1nn(C2CCCC2)c2nc(-c3ccccc3OCC(=O)O)[nH]c(=O)c12 [Example 16, 1-cyclopentyl-3-ethyl-6-[2-(carboxymethoxy)phenyl]pyrazolo[3,4-d]pyrimidin-4-one 1/2 hydrate] | inhibition at 10 µM (10 μM): 68%
– | 15 | CCc1[nH]n(C2CCCC2)c2nc(-c3ccc(OCCCN(C)C)cc3)nc(=O)c1-2 [Example 10, 1-cyclopentyl-3-ethyl-6-[4-[3-(dimethylamino)propoxy]phenyl]pyrazolo[3,4-d]pyrimidin-4-one] | inhibition at 10 µM (10 μM): 85%
– | 20 | CCc1[nH]n(C2CCCC2)c2nc(-c3ccccc3O)nc(=O)c1-2 [Example 7, 1-cyclopentyl-3-ethyl-6-(2-hydroxyphenyl)pyrazolo[3,4-d]pyrimidin-4-one] | inhibition at 10 µM (10 μM): 51%
26 | 76 | CCOc1cc(-n2ccnc2)ccc1-c1nc2n(C3CCCC3)[nH]c(CC)c-2c(=O)n1 [46 (c), 1-cyclopentyl-3-ethyl-6-[4-(1-imidazolyl)-2-ethoxyphenyl]pyrazolo[3,4-d]pyrimidin-4-one] | inhibition at 10 µM (10 μM): 90%; IC50: 18 nM
– | 40 | CCc1[nH]n(C2CCCC2)c2nc(-c3ccc([N+](=O)[O-])cc3)nc(=O)c1-2 [Example 28, 1-cyclopentyl-3-ethyl-6-(4-nitrophenyl)pyrazolo [3,4-d]pyrimidin-4-one] | –
58 | – | CCc1[nH]n(C2CCCC2)c2nc(-c3ccc(OC)c(OCCN4CCOCC4)c3)nc(=O)c1-2 [35 (b), 1-cyclopentyl-3-ethyl-6-[4-methoxy-3-[2-(4-morpholinyl)ethoxy]phenyl]pyrazolo[3,4-d]pyrimidin-4-one] | inhibition at 0.01 µM (0.01 μM): 13%
56 | – | CCc1[nH]n(C2CCCC2)c2nc(-c3cccc(OCc4ccncc4)c3)nc(=O)c1-2 [42 (c), 1-cyclopentyl-3-ethyl-6-[3-[4-pyridinylmethoxy]phenyl]pyrazolo[3,4-d]pyrimidin-4-one] | inhibition at 0.01 µM (0.01 μM): 25%
23 | 47 | CCc1nn(C2CCCC2)c2nc(-c3ccc4c(c3)CCO4)[nH]c(=O)c12 [Example 32, 1-cyclopentyl-3-ethyl-6-(2,3-dihydrobenzo[b]furan-5-yl)pyrazolo[3,4-d]pyrimidin-4-one 1/10 hydrate] | –
29 | 56 | CCc1[nH]n(C2CCCC2)c2nc(-c3cccc(O)c3)nc(=O)c1-2 [Example 44, 1-cyclopentyl-3-ethyl-6-(3-hydroxyphenyl)pyrazolo[3,4-d]pyrimidin-4-one] | –
21 | 73 | CCc1[nH]n(C2CCCC2)c2nc(-c3ccccc3-n3ccnc3)nc(=O)c1-2 [27 (c), 1-cyclopentyl-3-ethyl-6-[2-(1-imidazolyl)phenyl]pyrazolo[3,4-d]pyrimidin-4-one] | –
46 | 56 | CCc1[nH]n(C2CCCC2)c2nc(-c3cccc(OCCN4CCSCC4)c3)nc(=O)c1-2 [41 (c), 1-cyclopentyl-3-ethyl-6-[3-[2-(4-thiomorpholinyl)ethoxy]phenyl]pyrazolo[3,4-d]pyrimidin-4-one] | –
